The results in this text go back to article PMC9516332 (Frontiers in Oncology, 2022).

Read-outs that look alike come from different tables or passages of the source.

Common to all, as to assay: Kinase panel profiling at 1 µmol/L (MSA or IMAP), percentage inhibition
What all share (type): biochemical

Assay [1] addresses panel of 255 wild-type kinases (Homo sapiens, UniProt Q9UM73). The conditions noted are these: read-out: %-inhibition ALK.
For assay [2], the target named is panel of 255 wild-type kinases (Homo sapiens, UniProt P50750). Conditions: read-out: %-inhibition CDK9/CycT1.
Assay [3] deals with T1, panel of 255 wild-type kinases (Homo sapiens, UniProt P29320).
T1 sequence (P29320 21-983): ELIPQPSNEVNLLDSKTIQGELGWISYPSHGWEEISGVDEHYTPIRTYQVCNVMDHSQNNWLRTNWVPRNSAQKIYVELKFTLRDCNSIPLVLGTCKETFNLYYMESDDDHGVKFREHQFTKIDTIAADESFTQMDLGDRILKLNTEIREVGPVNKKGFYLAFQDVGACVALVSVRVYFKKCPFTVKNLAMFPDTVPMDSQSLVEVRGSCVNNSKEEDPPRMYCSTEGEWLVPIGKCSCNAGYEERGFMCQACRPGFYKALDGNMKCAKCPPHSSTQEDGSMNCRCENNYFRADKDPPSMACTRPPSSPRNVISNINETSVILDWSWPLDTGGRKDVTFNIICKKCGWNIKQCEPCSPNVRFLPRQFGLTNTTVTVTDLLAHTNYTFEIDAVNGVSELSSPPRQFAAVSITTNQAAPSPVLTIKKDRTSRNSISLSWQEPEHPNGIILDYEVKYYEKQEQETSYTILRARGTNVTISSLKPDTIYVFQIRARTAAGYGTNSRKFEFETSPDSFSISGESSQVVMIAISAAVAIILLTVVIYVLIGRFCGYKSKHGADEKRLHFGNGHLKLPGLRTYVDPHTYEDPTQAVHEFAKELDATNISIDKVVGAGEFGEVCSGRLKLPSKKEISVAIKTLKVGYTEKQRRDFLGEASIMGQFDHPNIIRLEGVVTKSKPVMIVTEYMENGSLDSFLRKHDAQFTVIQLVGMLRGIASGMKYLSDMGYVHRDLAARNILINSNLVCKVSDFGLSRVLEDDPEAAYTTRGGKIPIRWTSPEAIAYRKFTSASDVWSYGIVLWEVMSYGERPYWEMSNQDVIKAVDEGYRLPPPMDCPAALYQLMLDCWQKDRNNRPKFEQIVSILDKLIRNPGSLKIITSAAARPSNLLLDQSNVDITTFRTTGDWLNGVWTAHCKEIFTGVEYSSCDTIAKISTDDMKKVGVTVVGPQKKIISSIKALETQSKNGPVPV
The conditions noted are these: read-out: %-inhibition at 1 µmol/L, EPHA3.

Assay [4] concerns the target panel of 255 wild-type kinases (Homo sapiens, UniProt P23458). Conditions: read-out: %-inhibition at 1 µmol/L, JAK1.
Assay [5] concerns the target panel of 255 wild-type kinases (Homo sapiens, UniProt Q00534). The conditions noted are these: read-out: %-inhibition CDK6/CycD3.
The target in assay [6] is panel of 255 wild-type kinases (Homo sapiens, UniProt P57059). Conditions: read-out: %-inhibition at 1 µmol/L, SIK.
In assay [7] the target is panel of 255 wild-type kinases (Homo sapiens, UniProt P51957). The conditions noted are these: read-out: %-inhibition, NEK4.
The target in assay [8] is panel of 255 wild-type kinases (Homo sapiens, UniProt P45983). The conditions noted are these: read-out: %-inhibition at 1 µmol/L, JNK1.
In assay [9] the target is T2, panel of 255 wild-type kinases (Homo sapiens, UniProt P51955).
T2 sequence (P51955 1-445): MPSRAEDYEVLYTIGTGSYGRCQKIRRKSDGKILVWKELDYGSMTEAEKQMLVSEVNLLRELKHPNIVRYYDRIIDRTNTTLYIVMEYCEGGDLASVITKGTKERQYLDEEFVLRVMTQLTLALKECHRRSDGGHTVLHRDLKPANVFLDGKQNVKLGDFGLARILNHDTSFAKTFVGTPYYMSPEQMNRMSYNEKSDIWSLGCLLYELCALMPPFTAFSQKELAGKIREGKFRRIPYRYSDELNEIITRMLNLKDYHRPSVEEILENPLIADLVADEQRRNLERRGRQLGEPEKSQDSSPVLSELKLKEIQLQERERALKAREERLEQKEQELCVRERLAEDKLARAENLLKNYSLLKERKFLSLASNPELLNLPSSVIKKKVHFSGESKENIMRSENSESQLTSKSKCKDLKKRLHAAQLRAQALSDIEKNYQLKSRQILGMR
The conditions noted are these: read-out: %-inhibition, NEK2.

For assay [10], the target named is panel of 255 wild-type kinases (Homo sapiens, UniProt Q9H0K1). The conditions noted are these: read-out: %-inhibition at 1 µmol/L, QIK.
The mark [11] stands for this setting: ALK kinase assay, 1 µmol/L single concentration.
[12] abbreviates: CDK9/CycT1 kinase assay, 1 µmol/L single concentration.
[13] abbreviates: kinase EPHA3, 1 µmol/L single concentration.
The mark [14] stands for this setting: kinase JAK1, 1 µmol/L single concentration.
Setting [15] is: CDK6/CycD3 kinase assay, 1 µmol/L single concentration.
The mark [16] stands for this setting: kinase SIK, 1 µmol/L single concentration.
Setting [17] is: NEK4, 1 µmol/L single concentration.
[18] abbreviates: kinase JNK1, 1 µmol/L single concentration.
Setting [19] is: NEK2, 1 µmol/L single concentration.
Where [20] appears, read: kinase QIK, 1 µmol/L single concentration.

Regarding `Cc1nc(NC(=O)N2CCC[C@H]2C(N)=O)sc1-c1ccnc(C(C)(C)C(F)(F)F)c1` [alpelisib], the inhibition at 1 µM in [1] (setting [11]) is 1.84%; in [2] (setting [12]), -0.929%; in [3] (setting [13]) it was -0.173%; in assay [4] (setting [14]), -8%; in [5] (setting [15]), 2%; in assay [6] (setting [16]), -10%. Further, the inhibition at 1 µM in [7] (setting [17]) was -3%; in assay [8] (setting [18]), -5%; in assay [9] (setting [19]), 7.4%; in assay [10] (setting [20]) it was 2.48%.

On to `Cn1cc(-c2cc3c(N4CCN(c5ncc([C@@](C)(N)c6ccc(F)cc6)cn5)CC4)ncnn3c2)cn1` [avapritinib], for which the inhibition at 1 µM in assay [1] (setting [11]) is 35%; in assay [2] (setting [12]), 49%; in assay [3] (setting [13]), 22%; in assay [4] (setting [14]) it was 29%; in [5] (setting [15]) it was -0.371%; in assay [6] (setting [16]), 37%. In addition, the inhibition at 1 µM in [7] (setting [17]) is 12%; in [8] (setting [18]), -4.54%; in assay [9] (setting [19]) it was 9%; in assay [10] (setting [20]), 44%.

On to `Cn1cnc2c(F)c(Nc3ccc(Br)cc3F)c(C(=O)NOCCO)cc21` [binimetinib], for which the inhibition at 1 µM is 6.37% in [1] (setting [11]); -1.47% in [2] (setting [12]); 0.248% in assay [3] (setting [13]); 5% in assay [4] (setting [14]); -0.0739% in [5] (setting [15]); 0.277% in assay [6] (setting [16]). In addition, the inhibition at 1 µM in assay [7] (setting [17]) was -1.67%; in assay [8] (setting [18]), -2.59%; in assay [9] (setting [19]), 0.117%; in assay [10] (setting [20]), -4%.

`CNC(=O)c1ccc(-c2cnc3ncc(Cc4ccc5ncccc5c4)n3n2)cc1F` [capmatinib]: the inhibition at 1 µM in assay [1] was 28%; in assay [2], -0.278%; in [3], -9%; in assay [4] it was 2.61%; in assay [5], -1.65%; in assay [6], -6.33%. In addition, the inhibition at 1 µM is 2% in [7], -5.59% in assay [8], 2.36% in [9] and -2.24% in assay [10].

As for `COc1cc2ncnc(Nc3ccc(F)c(Cl)c3)c2cc1NC(=O)/C=C/CN1CCCCC1` [dacomitinib], the inhibition at 1 µM in assay [1] (setting [11]) was 17%; in assay [2] (setting [12]), 3.6%; in assay [3] (setting [13]), 11%; in assay [4] (setting [14]), 0.444%; in assay [5] (setting [15]) it was -6%; in [6] (setting [16]), 40%. The inhibition at 1 µM is -2.15% in assay [7] (setting [17]), 1.07% in assay [8] (setting [18]), -2.41% in assay [9] (setting [19]) and 68% in [10] (setting [20]).

`C[C@H](Nc1ncnc2nc[nH]c12)c1cc2cccc(Cl)c2c(=O)n1-c1ccccc1` [duvelisib]: the inhibition at 1 µM was 3.74% in [1] (setting [11]); -0.441% in assay [2] (setting [12]); 0.475% in [3] (setting [13]); 0.053% in assay [4] (setting [14]); 1.75% in [5] (setting [15]); -1.9% in [6] (setting [16]). Further, the inhibition at 1 µM in [7] (setting [17]) is -2.34%; in [8] (setting [18]) it was 0.533%; in [9] (setting [19]) it was 9%; in assay [10] (setting [20]), 2.15%.

As to `COC(=O)N[C@@H](C)CNc1nccc(-c2cn(C(C)C)nc2-c2cc(Cl)cc(NS(C)(=O)=O)c2F)n1` [encorafenib], the inhibition at 1 µM in [1] (setting [11]) is 8%; in [2] (setting [12]) it was -1.11%; in assay [3] (setting [13]), 4%; in assay [4] (setting [14]), 3.6%; in assay [5] (setting [15]), 6%; in assay [6] (setting [16]), 2.23%. Further, the inhibition at 1 µM in assay [7] (setting [17]) was 4.44%; in assay [8] (setting [18]) it was 6%; in [9] (setting [19]), 2.77%; in [10] (setting [20]) it was -0.749%.

For `CN1CCN(c2ccc(C(=O)Nc3n[nH]c4ccc(Cc5cc(F)cc(F)c5)cc34)c(NC3CCOCC3)c2)CC1` [entrectinib], the inhibition at 1 µM in assay [1] (setting [11]) was 100%; in assay [2] (setting [12]) it was 1.79%; in assay [3] (setting [13]), 30%; in assay [4] (setting [14]), 91%; in [5] (setting [15]), 1.6%; in assay [6] (setting [16]) it was 7.49%. In addition, the inhibition at 1 µM is 1.25% in assay [7] (setting [17]), -0.262% in [8] (setting [18]), 11% in [9] (setting [19]) and 6.5% in assay [10] (setting [20]).

Take `CCc1nc(C(N)=O)c(Nc2ccc(N3CCC(N4CCN(C)CC4)CC3)c(OC)c2)nc1NC1CCOCC1` [gilteritinib]: the inhibition at 1 µM in assay [1] (setting [11]) is 101%; in [2] (setting [12]) it was 32%; in assay [3] (setting [13]), 30%; in [4] (setting [14]), 24%; in assay [5] (setting [15]), 4%; in assay [6] (setting [16]), 59%. Moreover, the inhibition at 1 µM in [7] (setting [17]) worked out at 50%; in assay [8] (setting [18]), 29%; in [9] (setting [19]), 38%; in assay [10] (setting [20]) it was 63%.

As for `C[C@H]1Oc2cc(cnc2N)-c2c(nn(C)c2C#N)CN(C)C(=O)c2ccc(F)cc21` [lorlatinib], the inhibition at 1 µM was -2.48% in assay [2] (setting [12]); 4.35% in assay [3] (setting [13]); -0.817% in [4] (setting [14]); 2.65% in assay [5] (setting [15]); -1.87% in [6] (setting [16]); -0.571% in assay [7] (setting [17]). Moreover, the inhibition at 1 µM in [8] (setting [18]) was -0.746%; in [9] (setting [19]) it was 10%; in assay [10] (setting [20]), 2.53%.

Turning to `Cn1cnc2c(F)c(Nc3ccc(Br)cc3Cl)c(C(=O)NOCCO)cc21` [selumetinib], the inhibition at 1 µM was -2.15% in [2] (setting [12]); -8% in assay [3] (setting [13]); 2.46% in assay [4] (setting [14]); -3.49% in [5] (setting [15]); -3% in assay [6] (setting [16]); 3.45% in assay [7] (setting [17]). The inhibition at 1 µM in [8] (setting [18]) is -4.74%; in assay [9] (setting [19]) it was 9%; in [10] (setting [20]), -4%.
